From patent publication US20130237478A1, “COMPOSITIONS AND METHODS FOR TREATMENT OF PERIPHERAL VASCULAR DISEASE” (TARIX PHARMACEUTICALS LTD., priority 2012, published 2013)

Key:
[1] = Body weight of mice in hind limb ischemia studies; type: in vivo, Balb/c mice; conditions: Example 1; 500 μg/kg SC daily; throughout the study (49 days)
Method: Body weight of animals was measured before the surgery and once weekly thereafter.
The model and procedures used for this example is the same as for those in Examples 1 and 2, unless otherwise specified.

[2] = system: Transient middle cerebral artery occlusion (tMCAO); assay: Body swing test after tMCAO stroke; type: in vivo, rats; conditions: 50 μg/kg by Alzet pump
Method: (§1) For the purposes of this example, Transient middle cerebral artery occlusion (tMCAO) procedure Day is defined as “Day 1” in this study. On the day of surgery anesthesia were induced with 4% isoflurane in a mixture of 70% N2O and 30% O2 and maintained with 1.5-2% isoflurane.
(§2) The tMCAO procedures were performed according to the method described R. Schmid-Elsaesser et al. Briefly, the right CCA (Common Carotid Artery) was exposed through a midline neck incision and carefully dissected free from surrounding nerves and fascia—from its bifurcation to the base of the skull. The occipital artery branches of the ECA (External Carotid Artery) were then isolated, and these branches were dissected and coagulated. The ECA was dissected further distally and coagulated along with the terminal lingual and maxillary artery branches, which was then divided. The ICA (Internal Carotid Artery) was isolated and carefully separated from the adjacent vagus nerve, and the pterygopalatine artery was ligated close to its origin with a 5-0 nylon suture (SMI, Belgium). Next, a 4-0 silk suture was tied loosely around the mobilized ECA stump, and a 4 cm length of 4-0 monofilament nylon suture (the tip of the suture was blunted by using a flame, and the suture was coated with polylysine, prior to insertion) was inserted through the proximal ECA into the ICA and thence into the circle of Willis, effectively occluding the MCA. The surgical wound was closed and the animals were returned to their cages to recover from anesthesia. One hour and a half after occlusion rats were re-anesthetized, the monofilament was withdrawn to allow reperfusion, the surgical wound was closed and rats were returned to their cages.
Animals were subjected to a modified Modified Neurological Rating Scale (mNRS) at 24 hours post reperfusion. Only animals with an overall score of ≧10 were included in this study. Animals were allocated into the test groups, according to the mNRS results on day 2, in order to have similar distribution of rats performance between groups. Starting on day 2, 24 hours post-surgery, animals in groups 4, 5 and 7 were implanted subcutaneously with an osmotic Alzet pump and treated with either 500 μg/kg TXA127, 500 μg/kg PanCyte, or 50 μg/kg Linear PanCyte. Animals in groups 2, 3 and 6 received 500 μg/kg or 1,000 μg/kg TXA127 or 500 μg/kg PanCyte, administered subcutaneously via daily injection. Animals in group 1 were treated with a daily subcutaneous injection of a PBS (vehicle).
Each rat was held approximately one inch from the base of its tail. It was then elevated to an inch above a surface of a table. The rat was held in the vertical axis, defined as no more than 10° to either the left or the right side. A swing was recorded whenever the rat moves its head out of the vertical axis to either side. Before attempting another swing, the rat must return to the vertical position for the next swing to be counted. Twenty (20) total swings were counted. A normal rat typically has an equal number of swings to either side. Following focal ischemia, the rat tends to swing to the contralateral side (left side in this case). Body swing scores are expressed as a percentage of […] over total swings.

[3] = system: Transient middle cerebral artery occlusion (tMCAO); assay: Forelimb placement test after tMCAO stroke; type: in vivo, rats; conditions: 50 μg/kg by Alzet pump; particularly on Days 21 and 35
Method: as §1
(§3) The tMCAO procedures were performed according to the method described R. Schmid-Elsaesser et al. Briefly, the right CCA (Common Carotid Artery) was exposed through a midline neck incision and carefully dissected free from surrounding nerves and fascia—from its bifurcation to the base of the skull. The occipital artery branches of the ECA (External Carotid Artery) were then isolated, and these branches were dissected and coagulated. The ECA was dissected further distally and coagulated along with the terminal lingual and maxillary artery branches, which was then divided. The ICA (Internal Carotid Artery) was isolated and carefully separated from the adjacent vagus nerve, and the pterygopalatine artery was ligated close to its origin with a 5-0 nylon suture (SMI, Belgium). […]
For the forelimb-placing test, the rat was held close to a tabletop and the rat's ability to place the forelimb on the tabletop in response to whisker, visual, tactile, or proprioceptive stimulation was scored (0=normal, 12=maximally impaired). […]

[4] = system: Transient middle cerebral artery occlusion (tMCAO); assay: tMCAO stroke model, overall comparison of results; type: in vivo, rats; conditions: Linear PanCyte dose at least ten times lower than PanCyte
From the text: Without wishing to be held to a particular theory, it is possible that angiotensin-(1-7) peptides or functional equivalents, analogs or derivatives, and/or angiotensin-(1-7) receptor agonists such as TXA127, PanCyte and Linear PanCyte act to stimulate blood flow and tissue repair through angiogenesis. Such a mode of action would be extremely beneficial in a critical limb ischemia scenario since these conditions have deprivation of blood supply as a major source of pathology.
as §1
as §3, with “divided.” for “divided. The ICA (Internal Carotid Artery) was isolated and carefully separated from the adjacent vagus nerve, and the pterygopalatine artery was ligated close to its origin with a 5-0 nylon suture (SMI, Belgium).”

[5] = system: Transient middle cerebral artery occlusion (tMCAO); assay: Stepping test (forelimb akinesia) after tMCAO stroke; type: in vivo, rats
Method: as §1
as §2, with “One hour and a half after occlusion rats were re-anesthetized, the monofilament was withdrawn to allow reperfusion, the surgical wound was closed and rats were returned to their cages.” left out
Animals were tested for forelimb akinesia in a stepping test (ST). The animal was held with its hind limbs fixed with one hand and the forelimb not to be monitored with the other, while the unrestrained fore-paw touches the table. The number of adjusting steps are counted while the animal is moved sideways along the table surface (85 cm in approximately five seconds), in the forehand & backhand direction for both forelimbs. […]

Row | Compound | body weight vs vehicle [1] | body swing performance ([2]; by Day 21) | body swing performance vs vehicle ([2]; by Day 28) | forelimb placement performance compared with other groups [3] | results in stroke model compared with PanCyte [4] | stepping test results compared with TXA127 or PanCyte ([5]; 50 μg/kg by Alzet pump) | stepping test performance vs vehicle ([5]; all experimental conditions (Table 22), by Day 28 post-surgery)
1 | CC[C@H](C)[C@H](NC(=O)[C@H](Cc1ccc(O)cc1)NC(=O)[C@@H](NC(=O)[C@H](CCCNC(=N)N)NC(=O)[C@@H](N)CC(=O)O)C(C)C)C(=O)N[C@@H](Cc1c[nH]cn1)C(=O)N1CCC[C@H]1C(=O)O [TXA127, Asp^1-Arg^2-Val^3-Tyr^4-Ile^5-His^6-Pro^7 (SEQ ID NO: 1)] | no statistically significant differences | – | – | – | – | – | –
2 | Asp^1-Arg^2-Val^3-Ser^4-Ile^5-His^6-Cys^7 (SEQ ID NO:5) (DRVSIHC) [Linear PanCyte] | – | showed improvement | significant improvement in performance | best performance | at least as impressive as PanCyte and in many cases even more impressive results | substantially equivalent to ten times as much TXA127 or PanCyte | significantly improved the performance
